Where two headings read alike, the source gives them in different places. Where only a bound is given, the exact number is not on record here.

Type in all cases: biochemical
One assay concerns the target T1, Btk (Homo sapiens, UniProt Q06187).
T1 construct: purified from insect cells as a full-length construct containing a N-terminal 6X-His tag; His6 (N); made in house; host or cells: insect cells (Method C)
Kind of assay: Btk in vitro inhibitory activity (one of Method A TR-FRET, Method B electrophoretic mobility shift, Method C radiometric filter binding). The method, boiled down: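 Three alternative formats were used. A radiometric filter-binding read used 8 nM full-length His-BTK with 0.2 mg/mL poly(Glu-Tyr) 4:1 (C); microfluidic separation of 1 μM FAM-peptide by 1 nM BTK gave IC50 from 12-point curves (B); TR-FRET at Km ATP, 0.5 nM Btk, gave Ki(app)-derived IC50 (A).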

Another assay addresses T2, TEC (Homo sapiens, UniProt P42680).
T2 sequence (P42680 1-631): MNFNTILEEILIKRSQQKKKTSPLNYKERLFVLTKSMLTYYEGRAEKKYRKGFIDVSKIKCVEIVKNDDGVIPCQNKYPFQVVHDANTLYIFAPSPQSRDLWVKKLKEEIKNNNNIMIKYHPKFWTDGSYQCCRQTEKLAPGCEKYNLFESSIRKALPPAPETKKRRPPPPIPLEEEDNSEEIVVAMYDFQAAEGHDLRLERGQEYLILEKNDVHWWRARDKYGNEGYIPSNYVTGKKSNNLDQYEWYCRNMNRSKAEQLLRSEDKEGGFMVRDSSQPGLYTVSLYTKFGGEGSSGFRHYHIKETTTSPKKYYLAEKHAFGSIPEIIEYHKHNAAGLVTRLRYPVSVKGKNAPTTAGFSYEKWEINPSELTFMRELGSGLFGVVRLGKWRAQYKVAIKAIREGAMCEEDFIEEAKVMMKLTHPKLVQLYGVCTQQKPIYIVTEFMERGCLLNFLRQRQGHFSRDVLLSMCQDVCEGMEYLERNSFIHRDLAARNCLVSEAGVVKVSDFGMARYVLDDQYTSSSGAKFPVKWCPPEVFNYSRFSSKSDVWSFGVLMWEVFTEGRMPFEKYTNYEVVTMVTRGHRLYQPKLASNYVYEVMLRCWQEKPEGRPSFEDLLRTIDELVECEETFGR
Kind of assay: Inhibition of a panel of kinases (in vitro HotSpot kinase assay, 33P-ATP, 1 μM ATP). Conditions: for IC50: HotSpot kinase assay, 1 μM ATP; for TEC/Btk: ratio of TEC IC50 to Btk IC50 (selectivity). The method, boiled down:
(§1)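 Radiometric read-out: 33P transfer to a suitable substrate by each purified enzyme, ATP at 1 μM. Values are degree of inhibition.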

For a further assay, the target named is T3, panel of kinases (Homo sapiens, UniProt P51813).
T3 sequence (P51813 1-675): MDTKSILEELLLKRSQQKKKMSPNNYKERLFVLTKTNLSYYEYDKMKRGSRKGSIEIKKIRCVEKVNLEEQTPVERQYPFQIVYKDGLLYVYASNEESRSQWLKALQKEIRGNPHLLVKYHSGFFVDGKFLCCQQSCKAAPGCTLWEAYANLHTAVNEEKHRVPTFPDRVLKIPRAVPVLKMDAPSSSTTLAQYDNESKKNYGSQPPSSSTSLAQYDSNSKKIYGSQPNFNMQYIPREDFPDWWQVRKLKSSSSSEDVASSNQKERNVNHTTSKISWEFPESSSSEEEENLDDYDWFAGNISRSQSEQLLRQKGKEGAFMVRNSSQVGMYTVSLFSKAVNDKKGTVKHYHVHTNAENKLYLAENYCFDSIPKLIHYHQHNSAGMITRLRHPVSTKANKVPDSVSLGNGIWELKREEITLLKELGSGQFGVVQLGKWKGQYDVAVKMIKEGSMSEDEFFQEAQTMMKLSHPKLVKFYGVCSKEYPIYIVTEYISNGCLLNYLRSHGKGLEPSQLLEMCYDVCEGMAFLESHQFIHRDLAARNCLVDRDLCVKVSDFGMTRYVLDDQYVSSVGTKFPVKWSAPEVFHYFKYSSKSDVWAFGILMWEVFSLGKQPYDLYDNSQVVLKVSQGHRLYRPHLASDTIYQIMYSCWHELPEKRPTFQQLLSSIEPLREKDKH
Kind of assay: Inhibition of a panel of kinases (in vitro HotSpot kinase assay, 33P-ATP, 1 μM ATP), other kinases. As to conditions: BMX wild-type, read-out: BMX-WT IC50. The method, boiled down: as §1

[1] abbreviates: wild-type Btk, read-out: Btk-WT IC50.

T1 sequence (Q06187 whole entry): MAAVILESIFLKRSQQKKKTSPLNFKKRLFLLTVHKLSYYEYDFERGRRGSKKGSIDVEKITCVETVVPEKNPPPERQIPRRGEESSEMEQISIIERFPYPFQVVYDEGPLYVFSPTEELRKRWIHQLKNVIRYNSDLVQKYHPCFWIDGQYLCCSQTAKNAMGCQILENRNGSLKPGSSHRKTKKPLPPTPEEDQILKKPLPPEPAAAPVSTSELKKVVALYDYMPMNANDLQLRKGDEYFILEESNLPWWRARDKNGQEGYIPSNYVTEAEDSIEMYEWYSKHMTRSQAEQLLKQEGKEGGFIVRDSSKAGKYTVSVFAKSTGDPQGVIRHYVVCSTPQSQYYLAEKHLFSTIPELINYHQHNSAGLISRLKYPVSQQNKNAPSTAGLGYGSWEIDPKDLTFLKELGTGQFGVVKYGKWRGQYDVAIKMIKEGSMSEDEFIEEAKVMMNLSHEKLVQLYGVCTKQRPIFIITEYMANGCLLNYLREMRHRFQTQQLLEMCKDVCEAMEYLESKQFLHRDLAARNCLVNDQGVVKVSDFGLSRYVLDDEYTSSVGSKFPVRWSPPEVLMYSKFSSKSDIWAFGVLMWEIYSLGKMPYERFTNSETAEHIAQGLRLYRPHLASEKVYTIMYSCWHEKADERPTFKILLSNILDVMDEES

For the compound `CC(C)(C)c1noc(C(=O)NCc2ccc(-c3ccnc4[nH]nc(N5CCC(NC(=O)C6CC6)CC5)c34)cc2F)n1` [Example 207, 3-tert-butyl-N-{[4-(3-{4-[(cyclopropanecarbonyl)amino]piperidin-1-yl}-1H-pyrazolo[3,4-b]pyridin-4-yl)-2-fluorophenyl]methyl}-1,2,4-oxadiazole-5-carboxamide], the IC50 amounted to 0.375 nM at Btk (setting [1]), 815 nM against TEC and 1220 nM on panel of kinases. In addition, at TEC, the TEC/Btk came out at 2173.

As to `CC(=O)N[C@@H]1CCN(c2n[nH]c3nccc(-c4ccc(CNC(=O)c5ccc(C(C)(C)O)cn5)c(F)c4)c23)C1` [Example 424, N-[(4-{3-[(3R)-3-acetamidopyrrolidin-1-yl]-1H-pyrazolo[3,4-b]pyridin-4-yl}-2-fluorophenyl)methyl]-5-(2-hydroxypropan-2-yl)pyridine-2-carboxamide], the half-inhibitory concentration (IC50) at Btk (setting [1]) was 28.8 nM; against TEC, 5440 nM; on panel of kinases it was 6840 nM.

With `C[C@H]1CC[C@@H](Nc2n[nH]c3nccc(-c4ccc(CNC(=O)c5nc(C(C)(C)C)no5)c(F)c4)c23)CN1C(=O)N(C)C` [Example 391, (2S,5R)-5-{[4-(4-{[(3-tert-butyl-1,2,4-oxadiazole-5-carbonyl)amino]methyl}-3-fluorophenyl)-1H-pyrazolo[3,4-b]pyridin-3-yl]amino}-N,N,2-trimethylpiperidine-1-carboxamide], the IC50 on Btk (setting [1]) is 0.237 nM; against TEC, 776 nM; on panel of kinases, 1350 nM.

On to `C=CC(=O)N1CC(Nc2n[nH]c3nccc(-c4ccc(CNC(=O)c5noc(C(C)(C)C)n5)c(F)c4)c23)C1` [Example 107, 5-tert-butyl-N-{[2-fluoro-4-(3-{[1-(prop-2-enoyl)azetidin-3-yl]amino}-1H-pyrazolo[3,4-b]pyridin-4-yl)phenyl]methyl}-1,2,4-oxadiazole-3-carboxamide], for which the figures for the IC50 on Btk (setting [1]), at TEC and on panel of kinases were 528 nM, above 10000 nM and above 10000 nM, respectively. In addition, the TEC/Btk at TEC was above 100.

Consider `CC(=O)N[C@@H]1CCN(c2n[nH]c3nccc(-c4ccc(CNC(=O)c5cc(C(C)C)no5)c(F)c4)c23)C1` [Example 185, N-[(4-{3-[(3R)-3-acetamidopyrrolidin-1-yl]-1H-pyrazolo[3,4-b]pyridin-4-yl}-2-fluorophenyl)methyl]-3-(propan-2-yl)-1,2-oxazole-5-carboxamide], for which the 50% inhibitory concentration (IC50) stood at 7.43 nM on Btk (setting [1]), 2240 nM at TEC and 1560 nM at panel of kinases. Further, the TEC/Btk at TEC turned out to be 301.

As to `C=CC(=O)NC1CCN(c2n[nH]c3nccc(-c4ccc([C@@H](C)NC(=O)c5cc(C(C)(C)O)on5)cc4)c23)CC1` [Example 364, 5-(2-hydroxypropan-2-yl)-N-{(1R)-1-[4-(3-{4-[(prop-2-enoyl)amino]piperidin-1-yl}-1H-pyrazolo[3,4-b]pyridin-4-yl)phenyl]ethyl}-1,2-oxazole-3-carboxamide], the IC50 on Btk (setting [1]) was determined as 54.7 nM; against TEC, 9390 nM; at panel of kinases it was 5770 nM.

As for `CC(=O)N[C@@H]1CCN(c2n[nH]c3nccc(-c4ccc(CNC(=O)c5nc(C(C)C)no5)c(F)c4)c23)C1` [Example 200, N-[(4-{3-[(3R)-3-acetamidopyrrolidin-1-yl]-1H-pyrazolo[3,4-b]pyridin-4-yl}-2-fluorophenyl)methyl]-3-(propan-2-yl)-1,2,4-oxadiazole-5-carboxamide], the values for the IC50 at Btk (setting [1]), on TEC and at panel of kinases were 4.28 nM, 1470 nM and 1400 nM, respectively. Also, at TEC, the TEC/Btk came out at 343.

On to `C=CC(=O)N[C@@H]1CCN(c2n[nH]c3nccc(-c4ccc(CNC(=O)c5cc(C(C)(C)C#N)on5)c(F)c4)c23)C1` [Example 402, 5-(2-cyanopropan-2-yl)-N-{[2-fluoro-4-(3-{(3R)-3-[(prop-2-noyl)amino]pyrrolidin-1-yl}-1H-pyrazolo[3,4-b]pyridin-4-yl)phenyl]methyl}-1,2-oxazole-3-carboxamide], for which the values for the IC50 at Btk (setting [1]), against TEC and at panel of kinases were 0.222 nM, 6.48 nM and 16.9 nM, respectively.

Regarding `CC(C)(C)c1nc(NC(=O)Nc2ccc(-c3ccnc4[nH]nc(N[C@@H]5CCNC5)c34)cc2F)no1` [Example 155, 3-(5-tert-butyl-1,2,4-oxadiazol-3-yl)-1-[2-fluoro-4-(3-{[(3R)-pyrrolidin-3-yl]amino}-1H-pyrazolo[3,4-b]pyridin-4-yl)phenyl]urea], the concentration for half-maximal inhibition (IC50) on Btk (setting [1]), against TEC and at panel of kinases was above 10000 nM each time.

`CC(C)(C)c1noc(C(=O)NCc2ccc(-c3ccnc4[nH]nc(N[C@H]5CCNC5)c34)cc2F)n1` [Example 162, 3-tert-butyl-N-{[2-fluoro-4-(3-{[(3S)-pyrrolidin-3-yl]amino}-1H-pyraozlo[3,4-b]pyridin-4-yl)phenyl]methyl}-1,2,4-oxadiazole-5-carboxamide]: the IC50 at Btk (method is one of A, B or C, not stated which, read-out: IC50 values against Btk) is below 10 nM; on Btk (setting [1]) it was 4.5 nM; on TEC it was 6260 nM; on panel of kinases, 6050 nM. Also, the TEC/Btk at TEC is 1391.

For the compound `CC#CC(=O)N1CC[C@@H](Nc2n[nH]c3nccc(-c4ccc(C5(NC(=O)c6noc(C(C)(C)C)n6)CC5)cc4)c23)C1` [Compound 28, (R)—N-(1-(4-(3-((1-(but-2-ynoyl)pyrrolidin-3-yl)amino)-1H-pyrazolo[3,4-b]pyridin-4-yl)phenyl)cyclopropyl)-5-(tert-butyl)-1,2,4-oxadiazole-3-carboxamide], the half-maximal inhibitory concentration (IC50) at Btk (setting [1]) is 0.575 nM; at TEC, 200 nM; at panel of kinases it was 71 nM. In addition, the TEC/Btk on TEC is 347.

Take `CC(C)(C)c1nc(C(=O)NCc2ccc(-c3ccnc4[nH]nc(N[C@@H]5CCNC5)c34)c(F)c2)no1` [Example 129, 5-tert-butyl-N-{[3-fluoro-4-(3-{[(3R)-pyrrolidin-3-yl]amino}-1H-pyrazolo[3,4-b]pyridin-4-yl)phenyl]methyl}-1,2,4-oxadiazole-3-carboxamide]: the concentration for half-maximal inhibition (IC50) was 85.9 nM on Btk (setting [1]), above 10000 nM against TEC and above 10000 nM at panel of kinases. The TEC/Btk at TEC is listed as above 100.

Turning to `CC(=O)N1C[C@H](Nc2n[nH]c3nccc(-c4ccc(CNC(=O)c5nc(C(C)(C)C)no5)c(F)c4)c23)CC[C@@H]1C` [Example 408, N-{[4-(3-{[(3R,6S)-1-acetyl-6-methylpiperidin-3-yl]amino}-1H-pyrazolo[3,4-b]pyridin-4-yl)-2-fluorophenyl]methyl}-3-tert-butyl-1,2,4-oxadiazole-5-carboxamide], the figures for the IC50 on Btk (setting [1]), against TEC and on panel of kinases were 0.413 nM, 110 nM and 874 nM, respectively.

Turning to `C=CC(=O)N1CC[C@@H](Nc2n[nH]c3nccc(-c4ccc(CNC(=O)c5ccc(C6CC6)cc5)c(F)c4)c23)C1` [Compound 40, 4-cyclopropyl-N-{[2-fluoro-4-(3-{[(3R)-1-(prop-2-enoyl)pyrrolidin-3-yl]amino}-1H-pyrazolo[3,4-b]pyridin-4-yl)phenyl]methyl}benzamide], the 50% inhibitory concentration (IC50) at Btk (setting [1]) was found to be 1.27 nM; on TEC, 47 nM; at panel of kinases it was 54 nM. The TEC/Btk at TEC stood at 37.

Usually IC50 stands for the midpoint of a concentration-inhibition curve.

The record behind these values is patent US20180194762A1 (Pharmacyclics LLC, priority 2017, published 2018).
